These results are taken from patent US10799475B2, “Substituted phenyl aziridine precursor analogs for inhibiting androgen-independent prostate cancer cell growth” (Northwestern University, priority 2007, dated 2020).

For test [1], the target named is T1, AR (Homo sapiens, UniProt P10275, T878A).
T1 construct: epithelial cells expressing endogenous AR, LNCaP prostate cells were studied; endogenous in cells; host or cells: LNCaP
T1 sequence (P10275 1-920 T878A): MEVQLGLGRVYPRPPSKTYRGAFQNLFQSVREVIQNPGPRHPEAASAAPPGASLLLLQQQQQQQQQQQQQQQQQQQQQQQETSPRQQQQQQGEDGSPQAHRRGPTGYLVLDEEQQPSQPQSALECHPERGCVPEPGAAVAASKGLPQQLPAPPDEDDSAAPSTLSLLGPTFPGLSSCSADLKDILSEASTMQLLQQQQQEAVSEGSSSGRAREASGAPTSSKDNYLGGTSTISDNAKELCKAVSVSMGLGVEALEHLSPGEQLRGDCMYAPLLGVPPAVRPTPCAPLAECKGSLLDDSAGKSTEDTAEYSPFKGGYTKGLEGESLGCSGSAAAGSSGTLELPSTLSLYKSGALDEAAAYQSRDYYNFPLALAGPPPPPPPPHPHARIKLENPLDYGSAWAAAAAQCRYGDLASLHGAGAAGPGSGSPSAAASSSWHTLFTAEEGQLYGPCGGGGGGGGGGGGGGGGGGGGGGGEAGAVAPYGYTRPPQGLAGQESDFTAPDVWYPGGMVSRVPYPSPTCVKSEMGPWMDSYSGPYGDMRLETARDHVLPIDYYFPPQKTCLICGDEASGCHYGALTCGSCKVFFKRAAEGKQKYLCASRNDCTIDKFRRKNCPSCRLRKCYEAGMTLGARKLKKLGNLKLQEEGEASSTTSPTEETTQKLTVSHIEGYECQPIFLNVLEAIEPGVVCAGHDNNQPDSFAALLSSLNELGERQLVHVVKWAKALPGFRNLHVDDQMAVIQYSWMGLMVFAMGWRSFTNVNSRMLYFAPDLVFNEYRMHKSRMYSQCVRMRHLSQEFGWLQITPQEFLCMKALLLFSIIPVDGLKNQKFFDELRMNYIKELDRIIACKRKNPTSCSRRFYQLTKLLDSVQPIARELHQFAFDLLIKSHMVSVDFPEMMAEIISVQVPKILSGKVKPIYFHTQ
Description: EMSA of AR-DNA binding in LNCaP cells. It counts as cell-based.

The target of test [2] is T1, AR. The format is cell-based. Particulars: LNCaP cells, CpdA 2×10^−6 M, 24 hours, basal and DHT 10^−7 M.
In a further test the test system is PC3 and LNCaP-GR cells. The format is cell-based, human.
The target of test [3] is T2, AR (Homo sapiens, UniProt P10275).
T2 sequence (P10275 1-920): T1 sequence (P10275 1-920 T878A) with A878T
Conditions: cited from earlier work.

Residue numbers refer to the chain shown, from its start.

Turning to `CNCC(Cl)c1ccc(OC(C)=O)cc1.Cl` (stereo not shown) [CpdA, 2-(4-acetoxyphenyl)-2-chloro-N-methyl-ethylammonium chloride], at AR [1], the “AR DNA binding” value was “constitutively inhibit AR DNA binding and especially DHT-induced AR DNA binding”. Further, the AR transcriptional activity entry at AR [2] was “inhibited basal and DHT-induced transcriptional activity of AR”. Further, the “sensitivity to CpdA after GR blockage” value in the test with PC3 and LNCaP-GR cells is reported as “drastic loss of sensitivity”. The “competition for AR binding” value at AR [3] is listed as “does not compete with androgen for AR binding”.
